Source: PubChem BioAssay AID2060889 (Molecular Pharmacology Branch, DTP, NCI, 2025)

System: LG0567-F671-PDC complex spheroids viability
Experiment: Anticancer human tumor LG0567-F671-PDC patient-derived lung adenocarcinoma cell line growth inhibition [RAS]
Details: for IC50: curve of first compound; for viability, T/C: stronger effect = lower value; active = viability on the fitted dose curve at most 10% of control; inactive = the rest
Outline: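 Tumour cells grown as complex spheroids with HUVEC endothelial cells and mesenchymal stem cells, treated with RAS pathway inhibitor combinations. Each agent spans half-log steps from near clinical Cmax, or 10 microM where Cmax is unknown.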

[1] = second compound 0.0316 µM, first compound 0.0316 µM
[2] = second compound 0.0316 µM, first compound 0.1 µM
[3] = second compound 0.0316 µM, first compound 0.316 µM
[4] = second compound 0.0316 µM, first compound 1 µM
[5] = second compound 0.1 µM, first compound 0.0316 µM
[6] = second compound 0.1 µM, first compound 0.1 µM
[7] = second compound 0.1 µM, first compound 0.316 µM
[8] = second compound 0.1 µM, first compound 1 µM
[9] = second compound 0.316 µM, first compound 0.0316 µM
[10] = second compound 0.316 µM, first compound 0.1 µM
[11] = second compound 0.316 µM, first compound 0.316 µM
[12] = second compound 0.316 µM, first compound 1 µM
[13] = second compound 1 µM, first compound 0.0316 µM
[14] = second compound 1 µM, first compound 0.1 µM
[15] = second compound 1 µM, first compound 0.316 µM
[16] = second compound 1 µM, first compound 1 µM
[17] = second compound 3.16 µM, first compound 0.0316 µM
[18] = second compound 3.16 µM, first compound 0.1 µM
[19] = second compound 3.16 µM, first compound 0.316 µM
[20] = second compound 3.16 µM, first compound 1 µM
[21] = second compound 10 µM, first compound 0.0316 µM
[22] = second compound 10 µM, first compound 0.1 µM
[23] = second compound 10 µM, first compound 0.316 µM
[24] = second compound 10 µM, first compound 1 µM
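Also: spheroids exposed to compound for seven days before readout.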
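For IC50 in this document: luminescence signal used as a proxy for viable cells.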

C=CC(=O)N1CCN(c2nc(OCC3CCCN3C)nc3c(F)c(-c4nc(N)cc(C)c4C(F)(F)F)c(Cl)cc23)C(C)C1 (stereo unspecified) + C#Cc1c(F)ccc2cc(O)cc(-c3ncc4c(N5CC6CCC(C5)N6)nc(OCC56CCCN5CC(F)C6)nc4c3F)c12
inactive: viability, T/C (second compound 0.0316 µM, first compound 0.00316 µM) 17.4% | viability, T/C (second compound 0.0316 µM, first compound 0.01 µM) 12.2% | viability, T/C [1] 11.1% | viability, T/C [2] 12.7% | viability, T/C [3] 12.4% | viability, T/C [4] 11.7% | viability, T/C (second compound 0.1 µM, first compound 0.00316 µM) 14% | viability, T/C (second compound 0.1 µM, first compound 0.01 µM) 12% | viability, T/C [5] 9.61% | viability, T/C [6] 11.5% | viability, T/C [7] 11% | viability, T/C [8] 10.9% | viability, T/C (second compound 0.316 µM, first compound 0.00316 µM) 16.3% | viability, T/C (second compound 0.316 µM, first compound 0.01 µM) 15.7% | viability, T/C [9] 11.2% | viability, T/C [10] 8.83% | viability, T/C [11] 13.8% | viability, T/C [12] 9.54% | viability, T/C (second compound 1 µM, first compound 0.00316 µM) 20% | viability, T/C (second compound 1 µM, first compound 0.01 µM) 12.6% | viability, T/C [13] 10.3% | viability, T/C (second compound 3.16 µM, first compound 0.00316 µM) 14% | viability, T/C (second compound 3.16 µM, first compound 0.01 µM) 10.2% | viability, T/C (second compound 10 µM, first compound 0.00316 µM) 10.8%
< 3.16 nM: IC50 (second compound 0.0316 µM) | IC50 (second compound 0.1 µM) | IC50 (second compound 0.316 µM) | IC50 (second compound 1 µM) | IC50 (second compound 3.16 µM) | IC50 (second compound 10 µM)
active: viability, T/C [14] 8.88% | viability, T/C [15] 9.02% | viability, T/C [16] 8.65% | viability, T/C [17] 8.81% | viability, T/C [18] 7.62% | viability, T/C [19] 9.35% | viability, T/C [20] 8.07% | viability, T/C (second compound 10 µM, first compound 0.01 µM) 8.76% | viability, T/C [21] 8.93% | viability, T/C [22] 9.51% | viability, T/C [23] 9.18% | viability, T/C [24] 8.52%

CC(=O)OC12COC1CC(O)C1(C)C(=O)C(O)C3=C(C)C(OC(=O)C(O)C(NC(=O)OC(C)(C)C)c4ccccc4)CC(O)(C(OC(=O)c4ccccc4)C21)C3(C)C (stereo unspecified) + C#Cc1c(F)ccc2cc(O)cc(-c3ncc4c(N5CC6CCC(C5)N6)nc(OCC56CCCN5CC(F)C6)nc4c3F)c12
active: viability, T/C [21] 9.08% | viability, T/C [22] 7.93% | viability, T/C [23] 9.23% | viability, T/C [24] 8.41% | viability, T/C (second compound 10 µM, first compound 3.16 µM) 9.25% | viability, T/C (second compound 10 µM, first compound 10 µM) 5.64%
< 31.6 nM: IC50 (second compound 0.0316 µM) | IC50 (second compound 0.1 µM) | IC50 (second compound 0.316 µM) | IC50 (second compound 1 µM) | IC50 (second compound 3.16 µM) | IC50 (second compound 10 µM)
inactive: viability, T/C [1] 44.2% | viability, T/C [2] 43% | viability, T/C [3] 53.7% | viability, T/C [4] 60% | viability, T/C (second compound 0.0316 µM, first compound 3.16 µM) 66.5% | viability, T/C (second compound 0.0316 µM, first compound 10 µM) 65.3% | viability, T/C [5] 45.7% | viability, T/C [6] 40.1% | viability, T/C [7] 53.2% | viability, T/C [8] 56.7% | viability, T/C (second compound 0.1 µM, first compound 3.16 µM) 64.5% | viability, T/C (second compound 0.1 µM, first compound 10 µM) 59.4% | viability, T/C [9] 34.9% | viability, T/C [10] 37.8% | viability, T/C [11] 45.4% | viability, T/C [12] 49.1% | viability, T/C (second compound 0.316 µM, first compound 3.16 µM) 60% | viability, T/C (second compound 0.316 µM, first compound 10 µM) 43.8% | viability, T/C [13] 26.7% | viability, T/C [14] 24.8% | viability, T/C [15] 31.1% | viability, T/C [16] 37% | viability, T/C (second compound 1 µM, first compound 3.16 µM) 43.8% | viability, T/C (second compound 1 µM, first compound 10 µM) 30.8% | viability, T/C [17] 16.1% | viability, T/C [18] 16.4% | viability, T/C [19] 19.9% | viability, T/C [20] 20.5% | viability, T/C (second compound 3.16 µM, first compound 3.16 µM) 23.9% | viability, T/C (second compound 3.16 µM, first compound 10 µM) 15.2%

CCc1c2c(nc3ccc(O)cc13)-c1cc3c(c(=O)n1C2)COC(=O)[C@]3(O)CC + C#Cc1c(F)ccc2cc(O)cc(-c3ncc4c(N5CC6CCC(C5)N6)nc(OCC56CCCN5CC(F)C6)nc4c3F)c12
2.33 nM: IC50 (second compound 0.316 µM)
16.1 nM: IC50 (second compound 0.0316 µM)
11.7 nM: IC50 (second compound 0.1 µM)
active: viability, T/C (second compound 0.0316 µM, first compound 0.3 µM) 6.15% | viability, T/C (second compound 0.1 µM, first compound 0.3 µM) 7.9% | viability, T/C (second compound 0.316 µM, first compound 0.3 µM) 7.35% | viability, T/C (second compound 1 µM, first compound 0.3 µM) 6.24% | viability, T/C (second compound 3.16 µM, first compound 0.0949 µM) 8.88% | viability, T/C (second compound 3.16 µM, first compound 0.3 µM) 4.31% | viability, T/C (second compound 10 µM, first compound 0.00949 µM) 10.1% | viability, T/C (second compound 10 µM, first compound 0.03 µM) 6.59% | viability, T/C (second compound 10 µM, first compound 0.0949 µM) 4.97% | viability, T/C (second compound 10 µM, first compound 0.3 µM) 3.6%
inactive: viability, T/C (second compound 0.0316 µM, first compound 0.000949 µM) 82.4% | viability, T/C (second compound 0.0316 µM, first compound 0.003 µM) 67.4% | viability, T/C (second compound 0.0316 µM, first compound 0.00949 µM) 56.8% | viability, T/C (second compound 0.0316 µM, first compound 0.03 µM) 44.4% | viability, T/C (second compound 0.0316 µM, first compound 0.0949 µM) 23.6% | viability, T/C (second compound 0.1 µM, first compound 0.000949 µM) 73.3% | viability, T/C (second compound 0.1 µM, first compound 0.003 µM) 61% | viability, T/C (second compound 0.1 µM, first compound 0.00949 µM) 54.8% | viability, T/C (second compound 0.1 µM, first compound 0.03 µM) 38.6% | viability, T/C (second compound 0.1 µM, first compound 0.0949 µM) 22.4% | viability, T/C (second compound 0.316 µM, first compound 0.000949 µM) 50.4% | viability, T/C (second compound 0.316 µM, first compound 0.003 µM) 53.3% | viability, T/C (second compound 0.316 µM, first compound 0.00949 µM) 41% | viability, T/C (second compound 0.316 µM, first compound 0.03 µM) 29.8% | viability, T/C (second compound 0.316 µM, first compound 0.0949 µM) 20.3% | viability, T/C (second compound 1 µM, first compound 0.000949 µM) 30.5% | viability, T/C (second compound 1 µM, first compound 0.003 µM) 29.1% | viability, T/C (second compound 1 µM, first compound 0.00949 µM) 26.7% | viability, T/C (second compound 1 µM, first compound 0.03 µM) 20.9% | viability, T/C (second compound 1 µM, first compound 0.0949 µM) 13.9% | viability, T/C (second compound 3.16 µM, first compound 0.000949 µM) 20% | viability, T/C (second compound 3.16 µM, first compound 0.003 µM) 15.3% | viability, T/C (second compound 3.16 µM, first compound 0.00949 µM) 15.6% | viability, T/C (second compound 3.16 µM, first compound 0.03 µM) 11.2% | viability, T/C (second compound 10 µM, first compound 0.000949 µM) 11% | viability, T/C (second compound 10 µM, first compound 0.003 µM) 10%
< 0.949 nM: IC50 (second compound 1 µM) | IC50 (second compound 3.16 µM) | IC50 (second compound 10 µM)
